Measured values as given in paper PMC12211128, “Safety, tolerability, pharmacokinetic and pharmacodynamic effects of the muscarinic M1 positive allosteric modulator VU0467319 for Alzheimer’s disease: a single ascending-dose study in healthy participants” (Alzheimer's Research & Therapy, 2025).
“Also recorded” adds a separate entry of the source.

Tests used:
[1] = Plasma pharmacokinetics, single ascending dose and food effect studies; format: in vivo, human; settings: for %AUCext / AUC0 − last / AUC0−∞ / CL/F / Cmax / Vz/F / t½: mean (SD); for Tmax: median (min, max)
Text: Participants were screened up to 40 days prior to admission to the Vanderbilt Clinical Research Center (CRC). At admission, participants had baseline vital signs, clinical laboratory parameters and ECG were collected. The participants stayed overnight at the CRC, and in the morning performed the pre-dose cognitive and electrophysiological (ERP) batteries. Following completion of these batteries, pre-dose blood and urine for pharmacokinetic (PK) analysis was collected, as well as a second set of baseline vital signs. Participants then received an oral dose of VU319 or placebo with water. VU319 doses were assessed in five dose escalating cohorts of eight participants (60, 120, 240, 400 & 600 mg). The initial dose of 60 mg was chosen by allometric scaling of the highest no observed adverse effect level (NOAEL) in animal species and reduced by a safety factor of 10. The increase in doses following the initial dose of 60 mg followed a modified Fibonacci sequence. In each cohort, six participants received oral VU319 while two participants received placebo. The randomization of participants to either placebo or active VU319 was done using a randomly permuted block procedure at a ratio of 1:3 for each of five dosages of VU319. Participants were required to remain in the CRC for 36 h after dosing for the first four cohorts, and for 48 h for the 600 mg cohort and the food effect study due to the change in PK sampling (discussed more below). Cognitive and ERP batteries were performed five hours post-dose. The decision to escalate to the next dose cohort was determined by review and approval from an independent safety monitoring committee, based on the PK data, as well as the safety and tolerability data from the preceding dose level.
The food effect study was completed after the first 5 ascending cohorts, participants were dosed once in a fasted state and once following a controlled high fat breakfast. Based on the PK results of the single ascending dose cohorts (see results), the 120 mg dosage group was chosen for the food effect study. This dose was chosen as it was a low-middle dosage in which the pharmacokinetic parameters could move up or down depending on the addition of food. The food effect study consisted of twelve participants, ten of whom received oral 120 mg VU319, while the other two received placebo. The participants received VU319 or placebo on two separate visits to the Vanderbilt CRC. These visits were separated by at least 14 days to allow for washout. On one visit, participants were dosed in a fasted state, while on the other visit, participants were dosed 30 min after eating a controlled high-fat breakfast. The order of the fed/fast conditions were randomized and balanced so that half the cohort were dosed fasting first, and the other half fed first. Post-dose procedures were shifted 30 min to allow for breakfast, but otherwise all study procedures remained the same as in the ascending dose cohorts.
Blood samples (4 mL) were obtained by direct venipuncture into K2 EDTA tubes at 0.5 h pre-dose and at 0.5, 1, 1.5, 2, 2.5, 3, 5, 7, 9, 12, 24, 26, 28, 36, 48 and 144-hours post-dose. […] Urine samples for PK quantification were collected at pre-dose and 2, 5, 12, 24, 36 and 144-hours post-dose.
Determination of plasma and urine concentrations of VU319 and metabolite VU0481424 (VU424) was carried out in compliance with Good Laboratory Practice using a validated method at Illinois Institute of Technology Research Institute (IITRI) laboratories. Pharmacokinetic endpoints included the following VU319 parameters for plasma: area under the plasma concentration-time curve (AUC0 − 48); area under the plasma concentration-time curve extrapolated to infinity (AUC0−∞); percentage of the extrapolated area under the plasma concentration-time curve (%AUCextrap); maximum observed plasma concentration (Cmax); time (in hours) at which Cmax occurred (Tmax); clearance (Cl/F); elimination half-life (t1/2) and volume of distribution (Vd/F). […]

M1 mAChR = settings: cited from earlier work
[2] = VU319 120 mg oral, fasted, food effect study
[3] = VU319 120 mg oral, fed, food effect study

For Cn1cc2c(-c3cc(F)c(CN4Cc5ncccc5C4=O)c(F)c3)cccc2n1 [VU319], the “inter-participant variability (CV%) of Cmax, AUC0last, AUC0−∞” value ([1]; 120 mg, fasted and fed conditions) was 24–38%, the “AUC under fed vs fasted conditions” value ([1]; 120 mg, food effect study) was “insignificantly higher” and the “Cmax under fed vs fasted conditions, higher by” value ([1]; 120 mg, food effect study) was 51%. The “dose proportionality of systemic exposure (Cmax, AUC0 − last, AUC0−∞)” value ([1]; 60 to 600 mg, linear power model) was “less than dose-proportional”, the “%AUCext” value ([1]; VU319 60 mg oral, SAD) was 4.81 (6.18) % and the “AUC0 − last” value ([1]; VU319 60 mg oral, SAD) was 36.8 (10.9) µg•h/mL. The “AUC0−∞” value ([1]; VU319 60 mg oral, SAD) was 39.2 (13.3) µg•h/mL, the CL/F ([1]; VU319 60 mg oral, SAD) was 1.73 (0.71) L/h and the Cmax ([1]; VU319 60 mg oral, SAD) was 0.725 (0.209) µg/mL. For the same compound, the Vz/F ([1]; VU319 60 mg oral, SAD) was 71.8 (20.2) L, the t½ ([1]; VU319 60 mg oral, SAD) was 31.5 (13.3) h and the Tmax ([1]; VU319 60 mg oral, SAD) was 7.00 (2.50, 9.00) h. For the same compound, the “%AUCext” value ([1]; VU319 120 mg oral, SAD) was 6.30 (3.55) %, the “AUC0 − last” value ([1]; VU319 120 mg oral, SAD) was 60.1 (13.7) µg•h/mL and the “AUC0−∞” value ([1]; VU319 120 mg oral, SAD) was 59.0 (9.07) µg•h/mL. For the same compound, the CL/F ([1]; VU319 120 mg oral, SAD) was 2.07 (0.28) L/h, the Cmax ([1]; VU319 120 mg oral, SAD) was 0.884 (0.312) µg/mL and the Vz/F ([1]; VU319 120 mg oral, SAD) was 107 (6.4) L. For the same compound, the t½ ([1]; VU319 120 mg oral, SAD) was 55.4 (46.8) h, the Tmax ([1]; VU319 120 mg oral, SAD) was 5.00 (2.00, 24.0) h and the “%AUCext” value [1, 2] was 5.86 (4.51) %. For the same compound, the “AUC0 − last” value [1, 2] was 56.8 (18.0) µg•h/mL, the “AUC0−∞” value [1, 2] was 60.7 (23.3) µg•h/mL and the CL/F [1, 2] was 2.35 (1.15) L/h. The Cmax [1, 2] was 0.985 (0.38) µg/mL, the Vz/F [1, 2] was 94.4 (27.8) L and the t½ [1, 2] was 37.4 (15.9) h. For the same compound, the Tmax [1, 2] was 5.11 (2.50, 48.1) h, the “%AUCext” value [1, 3] was 5.79 (4.31) % and the “AUC0 − last” value [1, 3] was 62.5 (15.6) µg•h/mL. For the same compound, the “AUC0−∞” value [1, 3] was 66.6 (19.3) µg•h/mL, the CL/F [1, 3] was 2.01 (0.85) L/h and the Cmax [1, 3] was 1.42 (0.344) µg/mL. For the same compound, the Vz/F [1, 3] was 85.3 (16.4) L, the t½ [1, 3] was 36.9 (17.0) h and the Tmax [1, 3] was 5.02 (2.50, 8.97) h. The “%AUCext” value ([1]; VU319 240 mg oral, SAD) was 5.48 (6.31) %, the “AUC0 − last” value ([1]; VU319 240 mg oral, SAD) was 63.8 (18.4) µg•h/mL and the “AUC0−∞” value ([1]; VU319 240 mg oral, SAD) was 78.3 (15.2) µg•h/mL. The CL/F ([1]; VU319 240 mg oral, SAD) was 3.15 (0.58) L/h, the Cmax ([1]; VU319 240 mg oral, SAD) was 1.18 (0.425) µg/mL and the Vz/F ([1]; VU319 240 mg oral, SAD) was 143 (52.7) L. The t½ ([1]; VU319 240 mg oral, SAD) was 35.0 (14.5) h, the Tmax ([1]; VU319 240 mg oral, SAD) was 9.50 (3.00, 24.0) h and the “%AUCext” value ([1]; VU319 400 mg oral, SAD) was 11.2 (4.73) %. For the same compound, the “AUC0 − last” value ([1]; VU319 400 mg oral, SAD) was 132 (47.4) µg•h/mL, the “AUC0−∞” value ([1]; VU319 400 mg oral, SAD) was 124 (32.0) µg•h/mL and the CL/F ([1]; VU319 400 mg oral, SAD) was 3.42 (0.96) L/h. The Cmax ([1]; VU319 400 mg oral, SAD) was 1.72 (0.447) µg/mL, the Vz/F ([1]; VU319 400 mg oral, SAD) was 219 (21.6) L and the t½ ([1]; VU319 400 mg oral, SAD) was 46.2 (9.54) h. For the same compound, the Tmax ([1]; VU319 400 mg oral, SAD) was 5.98 (2.02, 48.2) h, the “%AUCext” value ([1]; VU319 600 mg oral, SAD) was 5.73 (2.41) % and the “AUC0 − last” value ([1]; VU319 600 mg oral, SAD) was 207 (47.1) µg•h/mL. The “AUC0−∞” value ([1]; VU319 600 mg oral, SAD) was 221 (54.6) µg•h/mL, the CL/F ([1]; VU319 600 mg oral, SAD) was 2.87 (0.77) L/h and the Cmax ([1]; VU319 600 mg oral, SAD) was 2.81 (0.64) µg/mL. The Vz/F ([1]; VU319 600 mg oral, SAD) was 123 (23.8) L, the t½ ([1]; VU319 600 mg oral, SAD) was 30.4 (4.37) h and the Tmax ([1]; VU319 600 mg oral, SAD) was 5.01 (2.00, 48.0) h. The “plasma half-life (initial findings)” value ([1]; first SAD cohorts, reason for changed sampling times) was > 30 h, the “dose proportionality of systemic exposure” value ([1]; higher doses, 240 to 600 mg) was “approximately proportional to dose” and the “agonist properties at M1” value (M1 mAChR) was “devoid of agonist properties; also recorded: lack of direct orthosteric agonism of M1 receptors”.
